# Tests used:
# [1] = test system: PMA-induced cell proliferation in mouse ear epidermis; assay: Mouse ear cell proliferation assay (IUdR incorporation, PCNA histology); assay type: in vivo
# Procedure: To determine the efficacy of scytonemin as an anti-proliferative agent in vivo, the following assay was conducted. On day one, test compounds were delivered in 10 μl 20% DMSO, 80% acetone and applied to both the inner and outer pinnae of left ears (20 μl total) of male, Swiss Webster mice (Taconic Farms, Germantown, N.Y.). The right ears received only vehicle. One hour post test compound application, 4 μg/ear PMA (Sigma, St. Louis, Mo.) in 10 μl acetone was applied to the inner pinnae of each left ear and 10 μl acetone was applied to each right ear. Four hours post test compound application, the each test compound was again applied in the same manner. On day two, the test compounds were applied twice with a four-hour interval between each application. On day three, the test compounds and PMA were applied as they had been on day one.
# One hour after the final test compound applications, each mouse was injected with 0.6 ml of a solution containing the thymidine analogue, 5-iodo-I^125-2′-deoxyuridine (IUdR) (2 μCi-I^125/mouse) and, to inhibit the endogenous deoxythymidilic acid synthetase, fluorodeoxyuridine (FUdR) ([…]). This IUdR/FUdR solution was made up in RPMI 1640 media. Eighteen hours post injection, the mice were euthanized via CO2 inhalation, the ears were excised and soaked individually in a 70% EtOH solution overnight.
# IUdR incorporation was then measured using a Beckman Gamma counter, Model 5500B. […] Therefore, scytoneman compounds may be used to reduce, prevent, inhibit, modulate, or attenuate cell proliferation.
# Additionally, immunostaining with Proliferating Cell Nuclear Antigen (PCNA) was used as a proliferation marker to identify proliferating cells. PCNA is a cofactor for DNAt […]. Expression levels of PCNA fluctuate over the cell cycle. […] Low expression levels of PCNA indicate non-cycling cells.
# Histological analysis was used to determine the effect of scytonemin on the thickness of the epidermal layer of skin, the mitotic index of cells in the epidermal layer, the number of cells in the epidermis, and the amount of immune cell infiltration. PCNA antibodies were used to detect the presence of PCNA in cells and a peroxidase-Ni/DAB development system was used to stain PCNA-positive cells black and hematoxlin was used as a nuclear blue counterstain using conventional methods.
# PKA = biological target: T1, PKA (Bos taurus, UniProt P00517); assay: PKA activity assay; assay type: biochemical, bovine
# T1 construct: 0.5 μg PKA (from bovine heart supplied by Sigma, St. Louis, Mo.); purchased Sigma, St. Louis, Mo; host or cells: bovine heart tissue
# Procedure: RhPKCβ2 was expressed in a baculovirus expression system. Kinase reactions were conducted in 50 μl comprising 0.5 μg rhPKC diluted in 2 mM Tris, and 100 μM EGTA and reaction buffer comprising substrate (0.9 mM EGTA, 1.1 mM CaCl2, 0.01 mg/ml glycogen synthase peptide (H-[…]OH) (Bachem, King of Prussia, Pa.), 40 μg/ml L-α-Phosphatidyl-L-serine, 1 μg/ml 1,3-Diolen, 10 mM MgCl2, pH 7.5). To assess PKA activity, kinase reactions were conducted in 50 μl comprising 0.5 μg PKA (from bovine heart supplied by Sigma, St. Louis, Mo.) diluted in 10 mM MOPS, pH 6.5 and reaction buffer comprising substrate (50 mM MOPS, pH 6.5, 10 mM MgCl2, 0.1 mg/ml Histone-IIA (Sigma, St. Louis, Mo.), 1 μM cAMP). An ATP solution (0.01 μM ATP and 0.5 μCi of [γ^33-P] ATP) was then added to the wells in both assay systems. Inhibitors were added at the indicated concentrations with a final DMSO concentration of 10%. Reactions were allowed to proceed for 20 minutes at 37° C. and were stopped with 25 mM EDTA. The reactions were spotted onto filter paper, washed four times in a beaker comprising 75 mM phosphoric acid and rinsed with acetone. Filters were dried and put in scintillation vials with fluid and counted.
# GST-Myt1 = biological target: T2, GST-Myt1 (Homo sapiens, UniProt Q99640); assay: GST-Myt1 autophosphorylation DELFIA assay; assay type: biochemical; settings: 1 μM ATP
# T2 construct: The Myt1 gene was truncated after amino acid 379 and just prior to the membrane-anchoring domain; made in house; host or cells: Sf9 (baculovirus, pFASTBAC)
# T2 sequence (Q99640 1-379): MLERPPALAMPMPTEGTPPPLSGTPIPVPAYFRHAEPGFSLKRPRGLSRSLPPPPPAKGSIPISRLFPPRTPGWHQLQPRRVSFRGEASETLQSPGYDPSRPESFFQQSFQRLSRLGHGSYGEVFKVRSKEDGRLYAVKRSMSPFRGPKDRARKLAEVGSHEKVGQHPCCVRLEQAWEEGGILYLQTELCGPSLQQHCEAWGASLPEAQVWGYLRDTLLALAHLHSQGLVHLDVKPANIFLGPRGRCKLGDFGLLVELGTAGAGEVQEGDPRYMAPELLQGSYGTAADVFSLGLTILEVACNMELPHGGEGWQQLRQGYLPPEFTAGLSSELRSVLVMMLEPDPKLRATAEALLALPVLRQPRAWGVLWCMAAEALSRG
# Source text: To determine the effect of SCY on GST-Myt1 activity, a rh-GST-Myt1 expression vector was constructed to include gst fused to the amino terminus of a truncated human Myt1 gene via a linker comprising a thrombin cleavage site. The Myt1 gene was truncated after amino acid 379 and just prior to the membrane-anchoring domain. The construct was cloned into the baculovirus expression system, pFASTBAC (Gibco-BRL, Gaithersburg, Md.).
# Spodoptera frugiperda 9 (Sf9) cells were infected with the virus and grown for three days before purifying as described in Roshak et al. (2000) for GST-PLK1 and GST-cdc25C to 75% purity as determined by SDS-PAGE analysis and Coomassie Blue staining. Dissociative enhanced lanthanide fluorescence immunoassays (DELFIA) (Wallac OY, Turku, Finland) were performed in 50 μl/well with 0.25 μg GST-Myt1, in reaction buffer (50 mM HEPES, pH 7.4, 2 mM Mn(OAc)2, 1 μM ATP, 1 mM DTT (final reaction concentrations)), and SCY (1 nM to 10 μM final reaction concentration). […]
# Reactions were allowed to proceed at room temperature with shaking for 20 minutes and were stopped with the addition of EDTA to give a final concentration of 20 mM, and the protein was allowed to bind to the wells for an additional 40 minutes. […] The plate was then read on the 1420 VICTOR plate counter from Wallac, Inc.
substance,measurement,setting,value
scytonemin,cells actively proliferating (PCNA staining),"[1]; +PMA 4 μg/ear, scytonemin 1 mg/ear, dexamethasone 0.15 mg/ear",about 60%
same,mitotic index of epidermal cells,"[1]; PMA-treated mouse ears, 5% SCY",reduces the mitotic index
same,cell proliferation in vivo (IUdR incorporation),"[1]; topical, PMA 4 μg/ear",effectively reduced or prevented cell proliferation in vivo
same,IC50,PKA,> 10000 nM
same,concentration at which PKA activity is significantly affected or inhibited,PKA; 0.01 μM ATP,≥ 10 µM
same,IC50,GST-Myt1,~1000 nM
